Source: EP1415984A1, “Aryloxyarylsulfonylamino hydroxamic acid derivatives” (Pfizer Products Inc., priority 1997, dated 1999)
Where “and” joins values, the source holds several entries; their conditions need not be identical. Equal entries are not always repeated.

Experiments:
[1] = biological target: T1, Human Collagenase (MMP-1) (Homo sapiens, UniProt P03956); assay: Inhibition of Human Collagenase (MMP-1), fluorogenic peptide substrate; format: biochemical; settings: human recombinant collagenase activated with trypsin; each table line is a separate determination
T1 sequence (P03956 100-469): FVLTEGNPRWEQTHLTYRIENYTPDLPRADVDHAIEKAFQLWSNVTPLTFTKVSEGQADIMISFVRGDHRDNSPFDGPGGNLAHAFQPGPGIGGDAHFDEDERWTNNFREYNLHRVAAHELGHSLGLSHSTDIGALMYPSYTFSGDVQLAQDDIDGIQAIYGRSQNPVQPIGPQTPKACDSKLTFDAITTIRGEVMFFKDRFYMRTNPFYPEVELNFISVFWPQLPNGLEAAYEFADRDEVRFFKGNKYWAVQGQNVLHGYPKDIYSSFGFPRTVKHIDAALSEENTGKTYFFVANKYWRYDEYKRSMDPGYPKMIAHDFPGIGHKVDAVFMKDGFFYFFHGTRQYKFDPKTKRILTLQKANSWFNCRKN
Experimental: Inhibition of Human Collagenase (MMP-1)
Human recombinant collagenase is activated with trypsin using the following ratio: […] of collagenase. The trypsin and collagenase are incubated at room temperature for 10 minutes then a five fold excess (50 mg/10 mg trypsin) of soybean trypsin inhibitor is added.
10 mM stock solutions of inhibitors are made up in dimethyl sulfoxide and then diluted using the following Scheme: 10 mM ―> 120 µM ―> 12 µM ―> 1.2 µM ―> 0.12 µM
Twenty-five microliters of each concentration is then added in triplicate to appropriate wells of a 96 well microfluor plate. The final concentration of inhibitor will be a 1:4 dilution after addition of enzyme and substrate. Positive controls (enzyme, no inhibitor) are set up in wells D1-D6 and blanks (no enzyme, no inhibitors) are set in wells D7-D12.
Collagenase is diluted to 400 ng/ml and […] is then added to appropriate wells of the microfluor plate. Final concentration of collagenase in the assay is 100 ng/ml.
Substrate (DNP-Pro-Cha-Gly-Cys(Me)-His-Ala-Lys(NMA)-NH2) is made as a 5 mM stock in dimethyl sulfoxide and then diluted to […] in assay buffer. The assay is initiated by the addition of […] substrate per well of the microfluor plate to give a final concentration of […].
Fluorescence readings (360 nm excitation. 460 nm emission) were taken at time 0 and then at 20 minute intervals. The assay is conducted at room temperature with a typical assay time of 3 hours.
Fluorescence vs time is then plotted for both the blank and collagenase containing samples (data from triplicate determinations is averaged). […] The zero time is used as a blank for each compound at each concentration and these values are subtracted from the 120 minute data. Data is plotted as inhibitor concentration vs % control (inhibitor fluorescence divided by fluorescence of collagenase alone x 100). IC50's are determined from the concentration of inhibitor that gives a signal that is 50% of the control. […]

Human recombinant MMP-13 = Human recombinant MMP-13 (Homo sapiens, UniProt P45452); assay: Inhibition of MMP-13, fluorogenic peptide substrate; format: biochemical; settings: human recombinant MMP-13 activated with APMA; each table line is a separate determination
Experimental: Human recombinant MMP-13 is activated with 2mM APMA (p-aminophenyl mercuric acetate) for 1.5 hours, at 37°C and is diluted to […] in assay buffer (50 mM Tris, pH 7.5, 200 mM sodium chloride, 5mM calcium chloride, […], 0.02% brij). Twenty-five microliters of diluted enzyme is added per well of a 96 well microfluor plate. The enzyme is then diluted in a 1:4 ratio in the assay by the addition of inhibitor and substrate to give a final concentration in the assay of […].
10 mM stock solutions of inhibitors are made up in dimethyl sulfoxide and then diluted in assay buffer as per the inhibitor dilution scheme for inhibition of human collagenase (MMP-1): Twenty-five microliters of each concentration is added in triplicate to the microfluor plate. The final concentrations in the assay are 30 mM, 3mM, 0.3 mM, and 0.03 mM.
Substrate (Dnp-Pro-Cha-Gly-Cys(Me)-His-Ala-Lys(NMA)-NH2) is prepared as for inhibition of human collagenase (MMP-1) and […] is added to each well to give a final assay concentration of […]. Fluorescence readings (360 nm excitation; 450 emission) are taken at time 0 and every 5 minutes for 1 hour.
Positive controls consist of enzyme and substrate with no inhibitor and blanks consist of substrate only.
IC50's are determined as per inhibition of human collagenase (MMP-1). If IC50's are reported to be less than […], inhibitors are then assayed at final concentrations of 0.3 mM, 0.03 mM, 0.003 mM and 0.0003 mM.

SMILES | IC50 [1] | IC50 (Human recombinant MMP-13)
CC(C)(C(=O)NO)N(CCC(=O)O)S(=O)(=O)c1ccc(Oc2ccc(F)cc2)cc1 [Example 4, 3-[[4-(4-FLUOROPHENOXY)BENZENESULFONYL)-(1-HYDROXYCARBAMOYL-1-METHYLETHYL)AMINO]PROPIONIC ACID] | 3500 nM and 2000 nM and 4800 nM | 5.7 nM and 2.3 nM and 8 nM
O=C(O)CCN(C1(C(=O)NO)CCCC1)S(=O)(=O)c1ccc(Oc2ccc(F)cc2)cc1 [Example 2, 3-[[4-(4-FLUOROPHENOXY)BENZENESULFONYL]-(1-HYDROXYCARBAMOYLCYCLOPENTYL) AMINO]PROPIONIC ACID] | 360 nM and 200 nM | 1.2 nM and 0.6 nM
CCOC(=O)CCN(C(C)(C)C(=O)NO)S(=O)(=O)c1ccc(Oc2ccc(F)cc2)cc1 [Example 3, 3-[[4-(4-FLUOROPHENOXY)BENZENESULFONYL]-(1-HYDROXYCARBAMOYL-1-METHYLETHYL)AMINO]PROPIONIC ACID ETHYL ESTER] | 1200 nM and 1800 nM | 1.6 nM and 2.3 nM
